Experiments:
[1] = test system: GH17 (Glycosyl Hydrolase family 17); assay: beta-glucosidase kit (MAK129), absorbance […] nm, Lineweaver-Burk; type: biochemical, Citrus sinensis; details: K-phosphate 100 mM, pH 6.5, 37°C, 20 min; no LasP235; substrate taken from Methods
[2] = test system: ALDH (aldehyde dehydrogenase; ALDH2); assay: ALDH activity kit (Abcam), absorbance […] nm (NADH standard), Lineweaver-Burk; type: biochemical, Citrus sinensis; details: no Effector 3; incubation 1 h; varied substrate acetaldehyde (Methods)

## O=[N+]([O-])c1ccc(O[C@@H]2O[C@H](CO)[C@@H](O)[C@H](O)[C@H]2O)cc1 [p-nitrophenyl-β-D-glucopyranoside]
[1]
  Km: 42 µM

## CC=O [acetaldehyde]
[2]
  Km: 2130 µM

— publication PMC9108871 (Frontiers in Plant Science, 2022)
